{"source": "patent EP0307071B1", "about": "“Flavor and fragrance enhancing enzymes” (YISSUM RESEARCH DEVELOPMENT COMPANY OF THE HEBREW …, priority 1987, dated 1989)", "target": "T1, Aspergillus niger B1 endo-β-glucosidase B1 (strain CMI CC 324626) preparation (Aspergillus niger, UniProt A2RAL4)", "T1 sequence (A2RAL4 20-860)": "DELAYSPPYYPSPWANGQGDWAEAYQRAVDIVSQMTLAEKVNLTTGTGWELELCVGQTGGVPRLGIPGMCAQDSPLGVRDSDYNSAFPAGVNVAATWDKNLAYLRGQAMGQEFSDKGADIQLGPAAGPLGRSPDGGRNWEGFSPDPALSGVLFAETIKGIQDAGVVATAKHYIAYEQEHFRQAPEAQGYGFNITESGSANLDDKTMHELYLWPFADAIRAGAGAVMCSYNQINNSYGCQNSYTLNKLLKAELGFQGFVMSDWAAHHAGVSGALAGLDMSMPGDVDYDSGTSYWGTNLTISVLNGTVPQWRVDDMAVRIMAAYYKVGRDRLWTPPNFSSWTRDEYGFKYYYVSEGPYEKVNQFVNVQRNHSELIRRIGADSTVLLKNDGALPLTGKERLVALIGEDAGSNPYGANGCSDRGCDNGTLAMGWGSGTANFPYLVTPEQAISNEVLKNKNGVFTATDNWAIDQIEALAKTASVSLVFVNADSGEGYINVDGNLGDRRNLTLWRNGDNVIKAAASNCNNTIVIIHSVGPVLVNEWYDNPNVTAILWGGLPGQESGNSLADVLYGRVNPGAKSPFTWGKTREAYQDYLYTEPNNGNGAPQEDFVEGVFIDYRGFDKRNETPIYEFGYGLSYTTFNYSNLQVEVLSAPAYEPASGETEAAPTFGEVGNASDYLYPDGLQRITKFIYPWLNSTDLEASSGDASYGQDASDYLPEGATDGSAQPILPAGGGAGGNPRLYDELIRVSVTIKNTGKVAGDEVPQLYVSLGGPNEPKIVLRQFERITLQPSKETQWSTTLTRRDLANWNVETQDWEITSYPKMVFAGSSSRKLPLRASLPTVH", "assay": "β-glucosidase kinetics and inhibition by standard procedures (PNPG or geranyl β rutinoside as substrates)", "type": "biochemical, Aspergillus niger B1 strain CMI CC 324626", "settings": "remaining enzyme activity", "description": "The concentrations of free and bound monoterpenes are preferably determined according to the method of Dimitriadis et. al. (Amer J. Enol. Vitic. 35:66-71 (1984) which reference is herein incorporated by reference). The activity of the endo-β-glucosidase of the present invention is preferably determined by standard methods using either PNPG or geranyl beta rutinoside as substrates.\nThe β-glucosidase activity was assayed by incubating 25 µl of enzyme preparation in 1 ml of 1 mM PNPG (p-nitrophenyl-β-D-glucopyranoside) for 2 minutes at 35°. The reaction was terminated by adding 200 µl of 1M Na2CO3 and the OD was read at 399 nm.\nThe supernatant and the filtered samples were then separately incubated with 20 ml of 1 mg/l of wine glycosides for 20 hours at 30°. Free monoterpenes were then analyzed according to Dimitriadis et al. (Amer J. Enol. Vitic. 35:66-71 (1984)). Characterization of the A. niger B1 β-glucosidase B1 activity included the determination of pH, ionic strength, temperature, and ethanol response curves, Km, Vmax and Ki for glucose, by standard procedures. In addition, the effect of various concentrations of grape juice (Muscat of Alexandria) sucrose, fructose and SO2 on the enzyme activity was determined by conventional methods. […]", "note": "Like-named read-outs stand apart in the source and are kept apart here.", "data": [{"compound": "O=C(CO)[C@@H](O)[C@H](O)[C@H](O)CO", "note": "[Fructose, fructose]", "values": [{"measurement": "activity at 1 M", "setting": "1M Fructose, read-out: Activity in the presence of 1M Fructose", "value": 90, "unit": "%"}]}, {"compound": "OC[C@H]1O[C@@](CO)(O[C@H]2O[C@H](CO)[C@@H](O)[C@H](O)[C@H]2O)[C@@H](O)[C@@H]1O", "note": "[sucrose]", "values": [{"measurement": "activity at 1 M", "setting": "1M sucrose, read-out: Activity in the presence of 1M sucrose", "value": 90, "unit": "%"}]}, {"compound": "SO2", "values": [{"measurement": "Activity in the presence of 200ppm SO2", "setting": "200ppm SO2", "value": 100, "unit": "%"}]}]}
